Experimental data published in US20120100157A1, “Biomarker and Method for Predicting Sensitivity to MET Inhibitors” (Van Andel Research Institute, priority 2010, published 2012).

Experiments:
[1] = system: U251M2, T98G, and DBM2 cells; assay: HGF- and EGF-induced uPA activity in GBM cells without autocrine HGF; type: cell-based, human; conditions: for cross inhibition between MET and EGFR pathways (uPA activity): early time point in vitro
Experimental: (§1) Cells were grown overnight in DMEM/10% FBS. Drugs were dissolved in DMSO and serially diluted from stock concentrations into DMEM/10% FBS medium and added to the appropriate wells. Immediately after drug or reagent addition, HGF/SF (60 ng/ml) was added to all wells (with the exception of wells used as controls to calculate basal growth and uPA-plasmin activity levels). Twenty-four hours after drug and HGF/SF addition, plates were processed for the determination of plasmin activity as described previously (22). Wells were washed twice with DMEM (without phenol red; Life Technologies, Inc.), and 200 μl of reaction buffer [50% (v/v) 0.05 units/ml plasminogen in DMEM (without phenol red), 40% (v/v) 50 mM Tris buffer (pH 8.2), and 10% (v/v) 3 mM Chromozyme PL (Boehringer Mannheim) in 100 mM glycine solution] was added to each well. The plates were then incubated at 37° C., 5% CO2, for 4 h, at which time the absorbance was read on an automated spectrophotometric plate reader at the single wavelength of 405 nm.

U251M2 = assay: In vivo SGX523 and erlotinib therapeutic efficacy study, U251M2 xenograft; parameters: species or system mice; conditions: for tumor sensitivity to single agent: either drug alone
Experimental: (§2) All animal studies were approved by the IACUC of the Van Andel Research Institute. Each GBM cell line (5×10^5 cells in 100 μl PBS) was inoculated into both SCID and SCIDhgf mice subcutaneously. For V13 tumor line, tumors were transplanted into SCIDhgf mice at the flank to initiate tumor growth. Tumor size was measured with a caliper twice a week. When average tumor size reached 100 mm^3, mice were grouped (n=10) for treatment as indicated. Dosing with SGX523 and/or erlotinib was delivered once daily by oral gavage for 3 weeks. Vehicles used were 0.5% MC 400 with 0.05% Tween 80 (SGX523) and 0.5% (w/v) methyl cellulose (erlotinib). Tumor size was measured by a caliper twice a week. Body weight was measured once a week. All mice were sacrificed 24 h after last dose. To determine the effectiveness of treatment, the average tumor size of each group from the last measurement was analyzed with Student's t test (α=0.05).

DBM2 = assay: In vivo SGX523 and erlotinib therapeutic efficacy study, DBM2 xenograft; parameters: species or system mice
Experimental: as §2

V13 = assay: In vivo efficacy study, V13 GBM patient-derived xenograft; parameters: species or system mice; conditions: for tumor response: V13 in SCIDhgf mice, Erlotinib at 75 mg/kg
Experimental: The V13 GBM xenograft tumor line was generated from the primary tumor of a GBM patient upon surgical removal. The fresh tumor specimen was split into two pieces, one to be divided and implanted into 5 nude mice to propagate tumor growth and another piece to be directly digested with 0.05% trypin into single cells and grown in Neuro-basal medium with 10% FBS supplemented with EGF (20 ng/ml), bFGF (20 ng/ml) and 1% penicillin and streptomycin at 37° C. The tumors growing from nude mice were analyzed using FISH to compare them with the original tumor and were further transplanted into the host nude mice to maintain tumor growth in vivo. All studies involving human subjects and human tissues were approved by IRB committee of Van Andel Research Institute.
as §2

U118 [2] = assay: Serum HGF ELISA, U118 tumor-bearing mice; type: in vivo; conditions: end of efficacy study, mean ± SD
Experimental: (§3) At the end of the efficacy study, mouse serum was collected from each group and kept at −80° C. until use. For HGF expression level, 50 μl of serum was used for an ELISA test (R&D) according to the kit instructions. At least five samples were tested. Data represent mean±SD. Student's t test was used for statistical analysis.

SF295 SQ1 = assay: Serum HGF ELISA, SF295 SQ1 tumor-bearing mice; type: in vivo; conditions: end of efficacy study, mean ± SD
Experimental: as §3

X01-GB = assay: In vivo efficacy study, X01-GB GBM stem cell tumors; parameters: species or system mice; conditions: for tumor response: X01-GB tumors, erlotinib at 75 mg/kg
Experimental: as §2

U87M2 [3] = assay: Serum HGF ELISA, U87M2 tumor-bearing mice; type: in vivo; conditions: end of efficacy study, mean ± SD
Experimental: as §3

U87M2 [4] = assay: In vivo SGX523 and erlotinib therapeutic efficacy study, U87M2 xenograft; parameters: species or system mice
Experimental: as §2

SF295SQ1 = assay: In vivo SGX523 and erlotinib therapeutic efficacy study, SF295SQ1 xenograft; parameters: species or system mice; conditions: SF295SQ1 subcutaneous; P<0.05 at all three doses
Experimental: as §2

U118 [5] = assay: In vivo SGX523 and erlotinib therapeutic efficacy study, U118 xenograft; parameters: species or system mice; conditions: U118 subcutaneous; P<0.05 at all three doses
Experimental: as §2

DBM2 cells = assay: HGF/EGF-induced downstream signaling, Western blot, DBM2; type: cell-based, human
Experimental: (§4) Cells were seeded in 10-cm dishes and grown until 80% confluent. After serum starvation overnight, cells were treated with or without SGX523 for 4 h with (or without) human HGF/SF or EGF (100 ng/ml) for 20 minutes at 37° C. The cells were washed twice with ice-cold 1×PBS, and whole cell lysates were prepared using RIPA buffer. The protein concentrations were determined by DC protein assay. Equal amounts of total protein (30 μg) from cell lysates were loaded on a 4-20% SDS-PAGE gel (invitrogen), transferred to a polyvinylidene difluoride (PVDF) membrane (Invitrogen), and detected using an ECL Western Blotting Detection System (GE Healthcare). Antibodies used were human Met (clone 25H2,), phospho-Met (Y1234/1235), human EGFR (clone D38B1), phosphor-EGFR(Y1068), AKT, phospho-AKT (S473), p42/44 MAPK, phospho-p42/44 MAPK (T202/Y204) (all from Cell Signaling Technology); β-actin (clone AC-15, Abcam); and anti-HGFantibody (Clone 7-2, provided by Dr. Brian Cao at Van Andel Research Institute). Secondary antibodies used were goat anti-rabbit IgG-HRP and goat anti-mouse IgG-HRP (Santa Cruz Biotechnology).

U87M2 cells [6] = assay: HGF/EGF-induced downstream signaling, Western blot, U87M2; type: cell-based, human; conditions: 1-10 μM, regardless of additional HGF or EGF stimulation
Experimental: as §4

U87M2 cells [7] = assay: uPA activity in HGF-autocrine U87M2 cells; type: cell-based, human; conditions: even when stimulated by EGF
Experimental: as §1

GBM = conditions: phase II clinical trials; cited from earlier work
recurrent GBM = conditions: clinical trials against recurrent GBM; cited from earlier work

| Molecule | cross inhibition between MET and EGFR pathways (uPA activity) [1] | tumor sensitivity to single agent (U251M2) | tumor response (V13) | Serum HGF concentration (U118 [2]; U118, SCID mice) | Serum HGF concentration (U118 [2]; U118, SCIDhgf mice) | Serum HGF concentration (SF295 SQ1; SF295 SQ1, SCID mice) | Serum HGF concentration (SF295 SQ1; SF295 SQ1, SCIDhgf mice) | tumor response (X01-GB) | Serum HGF concentration (U87M2 [3]; U87M2, SCID mice) | Serum HGF concentration (U87M2 [3]; U87M2, SCIDhgf mice) | also measured |
| --- | --- | --- | --- | --- | --- | --- | --- | --- | --- | --- | --- |
| C#Cc1cccc(Nc2ncnc3cc(OCCOC)c(OCCOC)cc23)c1 [Erlotinib, erlotinib] | no evidence of cross inhibition | tolerate | induced tumor regression | 348.7 ± 172^ pg/ml | 2940 ± 746 pg/mL | 858 ± 670 ^ pg/ml | 4000 ± 1132 pg/mL | very sensitive | 1277 ± 679 pg/mL | 8233 ± 3311 pg/mL | inhibition of EGF-induced uPA activity ([1]; within 24 hrs, U251M2, T98G, DBM2 cells): specifically blocked; tumor sensitivity to single agent (DBM2): somewhat sensitive; p-EGFR expression in tumor lysates (V13; V13, Western blot with tumor lysates): significantly reduced; p-EGFR in tumor lysates (X01-GB; X01-GB, Western blot with tumor lysates): significantly reduced; prolonged inhibition of U87M2 tumor growth (U87M2 [4]; FIG. 7: SGX523 90 or 120 mg/kg, erlotinib 150 mg/kg, p<0.05 for combination): failed |
| Cn1cc(-c2ccc3nnc(Sc4ccc5ncccc5c4)n3n2)cn1 [SGX523] | no evidence of cross inhibition | tolerate | no response | 91 ± 85 ^5, 6 pg/ml | 4149 ± 1264 pg/mL | 262 ± 138 ^4 pg/ml | 4214 ± 1084 pg/mL | do not respond | 152 ± 85 ^4 pg/ml | 6330 ± 2240 pg/mL | inhibition of HGF-induced uPA activity ([1]; SGX523 at 0.1 μM after 24 h, U251M2, T98G, DBM2 cells): inhibited HGF-induced uPA activity; tumor growth response at increased dose (U251M2; 120 mg/kg): did not improve the responsive; tumor growth response (U251M2; SGX523 60 mg/kg): no response; tumor growth response (DBM2; SGX523 60 mg/kg): no response; xenograft tumor sensitivity (SF295SQ1): sensitive to SGX523 in a dose-dependent manner; xenograft tumor sensitivity (U118 [5]): sensitive to SGX523 in a dose-dependent manner; inhibition of EGF induced p-EGFR (DBM2 cells): did not inhibit; tumor regrowth under continuous dosing (U87M2 [4]; U87M2, continuous dosing with SGX523): start to grow back after 2 weeks; tumor regression (U87M2 [4]; U87M2, first week after treatment started): induces U87M2 tumor regression; xenograft tumor sensitivity (U87M2 [4]; U87M2 subcutaneous, P<0.05 at all three doses): sensitive to SGX523 in a dose-dependent manner; inhibition of p-Met and downstream MAPK and AKT pathways (U87M2 cells [6]): can inhibit p-Met and downstream MAPK and AKT pathways; inhibition of basal level of uPA activity (U87M2 cells [7]): did inhibit the basal level of uPA activity |
| COc1cc2nccc(Oc3ccc(NC(=O)C4(C(=O)Nc5ccc(F)cc5)CC4)cc3)c2cc1OC [XL184] | – | – | – | – | – | – | – | – | – | – | clinical efficacy (GBM): promising efficacy |
| AMG102: a neutralizing antibody against HGF | – | – | – | – | – | – | – | – | – | – | clinical outcome (recurrent GBM): failed in clinical trials |
